Measured values from ChEMBL document CHEMBL5316350, “Novel Pyrido[2',1':2,3]imidazo[4,5-c]quinoline Derivative Selectively Poisons Leishmania donovani Bisubunit Topoisomerase 1 to Inhibit the Antimony-Resistant Leishmania Infection in Vivo” (J Med Chem, 2023).
Calls of active or inactive are those of the source. The rule behind the calls is not given here.

Tests used:
Leishmania donovani [1] = experiment: Induction of apoptosis in Leishmania donovani Ag83 promastigotes assessed as late apoptotic cells measured at 5 uM after 6 hrs by Annexin V-FITC/PI staining based flow cytometric analysis (reference value: 0.1%); format: functional
Leishmania donovani [2] = experiment: Antileishmanial activity against Leishmania donovani Ag83 promastigotes infected in BALB/c mouse model of visceral leishmaniasis assessed as fold change in T-helper type 1 immunological evoke response in splenocytes by measuring decrease in IL-10 level treated after 3 weeks of infection at 5 to 10 mg/kg, ip twice a week for 3 weeks by RT-PCR analysis; format: functional; conditions: dose 5-10 mg/kg
Leishmania donovani [3] = experiment: Induction of apoptosis in Leishmania donovani Ag83 promastigotes assessed as viable cells measured at 5 uM after 24 hrs by Annexin V-FITC/PI staining based flow cytometric analysis (reference value: 99.4%); format: functional
Leishmania donovani [4] = experiment: Antileishmanial activity against antimony resistant Leishmania donovani BHU575 promastigotes infected in BALB/c mouse assessed as reduction of amastigote burden in spleen treated after 3 weeks of infection at 5 to 10 mg/kg, ip twice a week for 3 weeks by Giemsa staining stamp-smear based limiting dilution assay; format: functional, organism-based; conditions: dose 5-10 mg/kg
Leishmania donovani [5] = experiment: Induction of cell cycle arrest in antimony resistant Leishmania donovani BHU575 promastigotes assessed as decrease in accumulation of cells in S phase at 5 uM measured after 12 hrs by PI staining based flow cytometry (reference value: 9.8%); format: functional; set-up: scale not given: the % may be the effect or the level left

In the case of `COc1cc(-c2nc3ccccc3c3nc4ccccn4c23)cc(OC)c1OC`, the Activity (Leishmania donovani [1]) was 52.5%, the “fold change (FC)” value (Leishmania donovani [2]) was 2 and the Activity (Leishmania donovani [3]) was 1.4%. The Activity (Leishmania donovani [4]) was “Active” and the Activity (Leishmania donovani [5]) was 23.7%.
